Read-outs that look alike come from different tables or passages of the source. Positions of bridges follow the written chain, without caps; N, C: chain ends. Non-standard residues stand in square brackets, D forms with d. Residues, ends and D or L forms follow the SMILES beside them. *: point of attachment. Octanoyl(6-Me) = CCC(C)CCCCC(=O)*; Dab = NCC[CH](N)C(=O)O
How the values were obtained:
[1] = tested on: plasma proteins (especially acidic alpha glycoprotein); conditions: cited from earlier work
[2] = plasma CST concentration in critically ill patient (CE-MS/MS, TDM); type: in vivo, human; conditions: CST A + CST B = 100 %, reference standard was 37.2/62.8 %
Procedure: Clinical plasma samples from two critically ill patients were obtained from the Clinic of Hematology and Transfusiology of St Cyril and Methodius Hospital in Bratislava. After collection, the samples were stored at −80 °C. Before the analysis, the samples were thawed at laboratory temperature, vortexed, and then, 30 μL of the plasma sample was mixed with 30 μL of demineralized water and 120 μL of the IS working solution. […] Following this action, the supernatant was injected directly into the CE system from a CE vial.
The application potential of the validated CE-MS method was tested on the plasma samples obtained from the Clinic of Hematology and Transfusiology of St Cyril and Methodius Hospital in Bratislava. Samples were collected from two critically ill patients treated with multiple intravenous antibiotics and antifungals. The samples were collected before and 30 min after the intravenous (i.v.) administration of the drugs. Patient 1 was treated with meropenem, trimethoprim/sulphamethoxazol, and CST. […] The measured plasma CST concentration of patient 1 before drug administration was 0.82 ± 0.02 μg mL^−1 ([…], n = 3). […]
As previously stated, CST is a heterogeneous substance and, as such, differs not only between producers but also across batches produced by the same manufacturer. […] In clinical plasma samples, a reverse percentage representation of the CST forms was detected. […]

[3] = short-term (autosampler) stability in plasma QC samples; conditions: n = 5
Procedure: (§1) Quality control (QC) samples were prepared at three concentration levels: i.) low QC: 0.28 μg mL^−1 (CST A sulfate) and 0.47 μg mL^−1 (CST B sulfate); ii.) medium QC: 2.79 μg mL^−1 (CST A sulfate) and 4.71 μg mL^−1 (CST B sulfate); and iii.) high QC: 6.51 μg mL^−1 (CST A sulfate) and 10.99 μg mL^−1 (CST B sulfate). The calibration curve and the QC sample solutions were prepared by mixing 30 μL of the CST sulfate standard at the desired concentration level with 30 μL of demineralized water or plasma and 120 μL of the IS working solution. After being vortexed and left to rest at room temperature for 10 min, the samples were centrifuged at 30,000×g for 10 min. Following this action, supernatant was immediately injected from a CE vial. Every sample underwent three measurements.
(§2) During the validation process, two types of stability were assessed: freeze and thaw stability (three cycles of freezing and thawing at room temperature) and short-term stability (sample kept in an autosampler for 24 h at laboratory temperature). In order to compare the findings from the measurements of QC samples stored according to the guidelines with those of newly prepared QC samples, stability experiments were conducted.

[4] = freeze and thaw stability in plasma QC samples; conditions: n = 5
Procedure: as §1, §2

[5] = pediatric patients; sum of CST A and CST B; cited from earlier work
[6] = parameters: method as in PMID 30500757; conditions: used topically and orally; cited from earlier work

In the case of CC(C)CCCCC(=O)N[C@@H](CCN)C(=O)N[C@H](C(=O)N[C@@H](CCN)C(=O)N[C@H]1CCNC(=O)[C@H]([C@@H](C)O)NC(=O)[C@H](CCN)NC(=O)[C@H](CCN)NC(=O)[C@H](CC(C)C)NC(=O)[C@@H](CC(C)C)NC(=O)[C@H](CCN)NC1=O)[C@@H](C)O [CST B, colistin B] (HELM PEPTIDE1{[CC(C)CCCCC(=O)[*:2]].[Dab].T.[Dab].[Dab].[Dab].[dL].L.[Dab].[Dab].T}$PEPTIDE1,PEPTIDE1,5:R3-11:R2$$$V2.0), the “binding to plasma proteins” value [1] is given as 41.7%.

With CCC(C)CCCCC(=O)NC(CCN)C(=O)NC(C(=O)NC(CCN)C(=O)NC1CCNC(=O)C(C(C)O)NC(=O)C(CCN)NC(=O)C(CCN)NC(=O)C(CC(C)C)NC(=O)C(CC(C)C)NC(=O)C(CCN)NC1=O)C(C)O (stereo not drawn) [CST A, colistin A] ({Octanoyl(6-Me)}-[Dab]T[Dab][Dab][Dab]LL[Dab][Dab]T; lactam 4-C; configuration not given here) the “percentage representation of the CST forms in clinical plasma samples” value [2] was 76.4%, the “Autosampler stability, Found, QC high” value ([3]; plasma QC high, nominal 6.51 (CST A) / 10.99 (CST B) μg.mL^−1, autosampler 24 h at laboratory temperature, CE-MS/MS) was 6.76 µg/mL and the “Autosampler stability, Found, QC low” value ([3]; plasma QC low, nominal 0.28 (CST A) / 0.47 (CST B) μg.mL^−1, kept in autosampler 24 h at laboratory temperature, pooled human plasma, CE-MS/MS) was 0.29 µg/mL. For the same compound, the “Autosampler stability, Found, QC medium” value ([3]; plasma QC medium, nominal 2.79 (CST A) / 4.71 (CST B) μg.mL^−1, autosampler 24 h at laboratory temperature, CE-MS/MS) was 2.94 µg/mL, the “Autosampler stability, RE, QC high” value ([3]; relative error in comparison to fresh sample, plasma QC high, autosampler 24 h at laboratory temperature) was 2.3% and the “Autosampler stability, RE, QC medium” value ([3]; relative error in comparison to fresh sample, plasma QC medium, autosampler 24 h at laboratory temperature) was 3.3%. For the same compound, the “binding to plasma proteins” value ([1]; especially to acidic alpha glycoprotein) was 56.6%, the “Freeze-to-thaw stability, Found, QC high” value ([4]; plasma QC high, nominal 6.51 (CST A) / 10.99 (CST B) μg.mL^−1, three freeze-thaw cycles, CE-MS/MS) was 6.54 µg/mL and the “Freeze-to-thaw stability, Found, QC low” value ([4]; plasma QC low, nominal 0.28 (CST A) / 0.47 (CST B) μg.mL^−1, three cycles of freezing and thawing at room temperature, CE-MS/MS) was 0.29 µg/mL. The “Freeze-to-thaw stability, Found, QC medium” value ([4]; plasma QC medium, nominal 2.79 (CST A) / 4.71 (CST B) μg.mL^−1, three freeze-thaw cycles, CE-MS/MS) was 2.81 µg/mL, the “Freeze-to-thaw stability, RE, QC low” value ([4]; relative error in comparison to fresh sample, plasma QC low, three freeze-thaw cycles) was 2.7% and the “Freeze-to-thaw stability, RE, QC medium” value ([4]; relative error in comparison to fresh sample, plasma QC medium, three freeze-thaw cycles) was 1.7%.

In the case of Colistin [CST], the “mean steady-state concentration of CST in plasma, median” value [5] is listed as 2.92 µg/mL.

In the case of colistin sulfate, the “absorption from the gastrointestinal tract” value [6] is listed as “minimal”.

— PMC10703858, “A simple and green capillary electrophoresis-mass spectrometry method for therapeutic drug monitoring of colistin in clinical plasma samples” (Heliyon, 2023)
